Molecules are shown by their SMILES. *1 amine or outer side, *2 acyl side, *3 side chain or, on linkers, in order; H or OH if unused. Where a SMILES comes first, the peptide text is derived from it. [ ]: non-standard residue; d: D form. The star is where a group is joined. ξ: configuration not given here. X11 = O=C([C@H](CC1CCCCC1)N(CCCc1ccccc1)[*:1])[*:2]; d(hhPhe) = N[C@H](CCCc1ccccc1)C(=O)O; Hydrocinnamoyl = O=C(CCc1ccccc1)*; Cha = N[C@@H](CC1CCCCC1)C(=O)O; ξhhPhe = NC(CCCc1ccccc1)C(=O)O; X1 = O=C(CC1CNc2ccccc21)*; X7 = O=C(C(O)CC1CCCCC1)*; PhAc = O=C(Cc1ccccc1)*; X8 = c1ccc(CCC*)cc1; Ahx = NCCCCCC(=O)O

29 compounds from patent publication US5663148A, “Anaphylatoxin receptor ligands containing lipophilic residues” (Abbott Laboratories, priority 1994, dated 1997) can be followed below.

This experiment deals with T1, C5a receptor (Homo sapiens, UniProt P21730).
T1 construct: from tissue; host or cells: polymorphonuclear leukocyte (PMNL) membrane fragments
T1 sequence (P21730 1-350): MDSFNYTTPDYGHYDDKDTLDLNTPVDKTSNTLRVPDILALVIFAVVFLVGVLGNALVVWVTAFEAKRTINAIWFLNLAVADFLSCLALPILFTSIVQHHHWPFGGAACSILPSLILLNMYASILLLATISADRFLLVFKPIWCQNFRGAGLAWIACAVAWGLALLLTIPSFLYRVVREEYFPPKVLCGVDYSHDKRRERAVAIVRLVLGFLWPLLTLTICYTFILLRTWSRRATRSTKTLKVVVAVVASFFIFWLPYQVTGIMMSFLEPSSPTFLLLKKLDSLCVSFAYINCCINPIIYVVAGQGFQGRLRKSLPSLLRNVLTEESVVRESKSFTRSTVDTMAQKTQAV
In words: Anaphylatoxin (C5a) receptor binding Ki determination, 125I-C5a on PMNL membrane fragments. Particulars: read-out: Ki (In vitro C5a Receptor Binding Potency). As for the experimental part: The membrane-bound radiolabeled C5a was separated from the free radiolabeled C5a by filtration, and the recovered gamma radioactivity was measured. […] Free and membrane-bound ligand were separated by filtration.

With `N=C(N)NCCC[C@H](NC(=O)C(CCCc1ccccc1)NC(=O)CN(Cc1ccccc1)C(=O)[C@H](CCCCN)NC(=O)[C@@H](N)Cc1ccccc1)C(=O)O` (single isomer, unassigned) [Example 94, H-Phenylalanyl-Lysyl-Glycyl(N-benzyl)-{(R/S)-2-Amino-5-phenylpentanoyl}-Arginyl-OH], the Ki (usually a measure of affinity in units of concentration, obtained from inhibition or displacement) stood at 5800 nM.

For `CC(C)C[C@H](NC(=O)CNC(=O)Cc1ccccc1)C(=O)N[C@H](CCCc1ccccc1)C(=O)N[C@@H](CCCNC(=N)N)C(=O)O` [Example 93, N-Phenylacetyl-Glycyl-Leucyl-{(R)-2-Amino-5-phenylpentanoyl}-Arginyl-OH] (PhAc-GL[d(hhPhe)]R-OH), the inhibition constant (Ki) came to 170 nM.

In the case of `CC(C)C[C@H](NC(=O)CNC(=O)[C@H](CC1CCCCC1)NC(=O)[C@H](N)CCCCN)C(=O)NC(CCCc1ccccc1)C(=O)N[C@@H](CCCNC(=N)N)C(=O)O` (single isomer, unassigned) [Example 56], the inhibition constant (Ki) was determined as 26800 nM.

As for `CC(C)C[C@H](NC(=O)[C@H](CCCCN)NC(=O)[C@@H](N)CC1CCCCC1)C(=O)NC(CCCc1ccccc1)C(=O)N[C@@H](CCCNC(=N)N)C(=O)O` (single isomer, unassigned) [Example 97], the Ki is 8200 nM.

Regarding `CC(C)C[C@@H](C(=O)NC(CCCc1ccccc1)C(=O)N[C@@H](CCCNC(=N)N)C(=O)O)N(C)C(=O)CNC(=O)[C@H](CC1CCCCC1)NC(=O)CCCCCCN` (mixture of isomers) [Example 27, N-(7-Aminoheptanoyl)-{(2S)-2-Amino-3-cyclohexylpropanoyl}-Glycyl-Leucyl(N-methyl)-{(R/S)-2-Amino-5-phenylpentanoyl}-Arginyl-OH], the inhibition constant (Ki) was determined as 450 nM.

Take `CC(C)C[C@@H](NC(=O)CNC(=O)[C@H](CC1CCCCC1)NC(=O)CCCCCN)C(=O)NC(CCCc1ccccc1)C(=O)N[C@@H](CCCNC(=N)N)C(=O)O` (single isomer, unassigned) [Example 100]: the Ki worked out at 60000 nM.

For the compound `CC(C)C[C@H](NC(=O)CNC(=O)C(N)CCCc1ccccc1)C(=O)N[C@H](CCCc1ccccc1)C(=O)N[C@@H](CCCNC(=N)N)C(=O)O` (single isomer, unassigned) [Example 105], the inhibition constant (Ki) is 330 nM.

Consider `CC(C)C[C@H](NC(=O)CCNC(=O)[C@H](CC1CCCCC1)NC(=O)CCCCCN)C(=O)NC(CCCc1ccccc1)C(=O)N[C@@H](CCCNC(=N)N)C(=O)O` (single isomer, unassigned) [Example 114], for which the inhibition constant (Ki) was 18600 nM.

Regarding `CC(C)C[C@@H](NC(=O)CNC(=O)[C@H](CC1CCCCC1)NC(=O)CCCCCN)C(=O)NC(CCCc1ccccc1)C(=O)N[C@@H](CCCNC(=N)N)C(=O)O` (single isomer, unassigned) [Example 99], the Ki was determined as 4800 nM.

As to `CC(C)C[C@H](NC(=O)[C@H](C)NC(=O)[C@H](CC1CCCCC1)NC(=O)CNC(=O)CCCCCN)C(=O)NC(CCCc1ccccc1)C(=O)N[C@@H](CCCNC(=N)N)C(=O)O` (single isomer, unassigned) [Example 33], the Ki is 680 nM.

Consider `CC(C)C[C@H](NC(=O)CNC(=O)[C@H](CC1CCCCC1)NC(=O)CCCCN)C(=O)NC(CCCc1ccccc1)C(=O)N[C@@H](CCCNC(=N)N)C(=O)O` (single isomer, unassigned) [Example 139], for which the inhibition constant (Ki) came to 1100 nM.

As for `CC(C)C[C@H](NC(=O)CNC(=O)[C@@H](N)Cc1ccccc1)C(=O)N[C@H](CCCc1ccccc1)C(=O)N[C@@H](CCCNC(=N)N)C(=O)O` [Example 116, H-Phenylalanyl-Glycyl-Leucyl-{(R)-2-Amino-5-phenylpentanoyl}-Arginyl-OH] (H-FGL[d(hhPhe)]R-OH), the inhibition constant Ki was found to be 630 nM.

Consider `CC(C)C[C@H](NC(=O)CNC(=O)[C@H](CC1CCCCC1)NCCCc1ccccc1)C(=O)N[C@H](CCCc1ccccc1)C(=O)N[C@@H](CCCNC(=N)N)C(=O)O` [Example 77, N-(3-Phenylpropyl)-{(2S)-2-Amino-3-cyclohexylpropanoyl}-Glycyl-Leucyl-{(R)-2-Amino-5-phenylpentanoyl}-Arginyl-OH] (H-[X11]GL[d(hhPhe)]R-OH), for which the inhibition constant Ki came to 50 nM.

Consider `CC(C)C[C@H](NC(=O)CNC(=O)[C@@H](CC1CCCCC1)NC(=O)CCCCCN)C(=O)NC(CCCc1ccccc1)C(=O)N[C@@H](CCCNC(=N)N)C(=O)O` (single isomer, unassigned) [Example 35], for which the Ki was 1270 nM.

In the case of `CC(C)C[C@H](NC(=O)[C@H](C)NC(=O)[C@H](CC1CCCCC1)NC(=O)[C@@H]1CCCN1C(=O)[C@H](CCCCN)NC(=O)CN)C(=O)N[C@H](CSCCCc1ccccc1)C(=O)N[C@@H](CCCNC(=N)N)C(=O)O` [Example 22, H-Glycyl-Lysyl-Prolyl-{(2S)-2-Amino-3-cyclohexylpropanoyl}-Alanyl-Leucyl-DCysteinyl(S-3-phenylpropyl)-Arginyl-OH] (H-GKP[Cha]AL[dC](X8)R-OH), the Ki was determined as 4700 nM.

For the compound `CC(C)C[C@H](NC(=O)CNC(=O)[C@H](CC1CCCCC1)NC(=O)CN)C(=O)NC(CCCc1ccccc1)C(=O)N[C@@H](CCCNC(=N)N)C(=O)O` (single isomer, unassigned) [Example 72], the Ki stood at 4270 nM.

For `C[C@H](NC(=O)CNC(=O)[C@H](CC1CCCCC1)NC(=O)CCCCCN)C(=O)NC(CCCc1ccccc1)C(=O)N[C@@H](CCCNC(=N)N)C(=O)O` (stereo partly drawn) [Example 74, N-(6-Aminohexanoyl)-{(2S)-2-Amino-3-cyclohexylpropanoyl}-Glycyl-Alanyl-{(+)-2-Amino-5-phenylpentanoyl}-Arginyl-OH] (H-[Ahx][Cha]GA[ξhhPhe]R-OH), the Ki was found to be 91900 nM.

Take `CN[C@@H](Cc1ccccc1)C(=O)N[C@@H](CCCCN)C(=O)N1CCC[C@H]1C(=O)N[C@@H](CC1CCCCC1)C(=O)N[C@@H](C)C(=O)N[C@@H](CC(C)C)C(=O)NC(CCCc1ccccc1)C(=O)N[C@@H](CCCNC(=N)N)C(=O)O` (single isomer, unassigned) [Example 129]: the inhibition constant (Ki) worked out at 17 nM.

Take `CC(C)C[C@H](NC(=O)[C@@H](C)NC(=O)[C@H](CC1CCCCC1)NC(=O)CCCCCN)C(=O)NC(CCCc1ccccc1)C(=O)N[C@@H](CCCNC(=N)N)C(=O)O` (single isomer, unassigned) [Example 126]: the Ki amounted to 13400 nM.

Consider `CC(C)C[C@H](NC(=O)[C@@H](C)NC(=O)[C@H](CC1CCCCC1)NC(=O)CCCCCN)C(=O)NC(CCCc1ccccc1)C(=O)N[C@@H](CCCNC(=N)N)C(=O)O` (single isomer, unassigned) [Example 127], for which the Ki was 23300 nM.

For the compound `CC(C)C[C@H](NC(=O)[C@@H]1CCCN1C(=O)[C@H](CC1CCCCC1)NC(=O)CNC(=O)CCCCCN)C(=O)NC(CCCc1ccccc1)C(=O)N[C@@H](CCCNC(=N)N)C(=O)O` (single isomer, unassigned) [Example 111], the Ki is 1000 nM.

As to `CC(C)C[C@H](NC(=O)Cc1c[nH]c2ccccc12)C(=O)N[C@@H](CCCc1ccccc1)C(=O)N[C@@H](CCCNC(=N)N)C(=O)O` [Example 20, N-{Indole-3-acetyl}-Leucyl-{(S)-2-Amino-5-phenylpentanoyl}-Arginyl-OH], the Ki was 6650 nM.

As for `CC(C)C[C@H](NC(=O)CNC(=O)CCc1ccccc1)C(=O)N[C@H](CCCc1ccccc1)C(=O)N[C@@H](CCCNC(=N)N)C(=O)O` [Example 92, N-(3-Phenylpropanoyl)-Glycyl-Leucyl-{(R)-2-Amino-5-phenylpentanoyl}-Arginyl-OH] (Hydrocinnamoyl-GL[d(hhPhe)]R-OH), the inhibitory constant (Ki) is 750 nM.

With `CC(C)C[C@H](NC(=O)CNC(=O)CC1CNc2ccccc21)C(=O)N[C@H](CCCc1ccccc1)C(=O)N[C@@H](CCCNC(=N)N)C(=O)O` (stereo partly drawn) [Example 80, N-[(Indoline-3-yl)acetyl]-Glycyl-Leucyl-{(R)-2-Amino-5-phenylpentanoyl}-Arginyl-OH] (X1-GL[d(hhPhe)]R-OH), the Ki is 870 nM.

For the compound `CC(C)C[C@H](NC(=O)[C@@H]1CCCN1C(=O)[C@H](CC1CCCCC1)NC(=O)CCCCCN)C(=O)NC(CCCc1ccccc1)C(=O)N[C@@H](CCCNC(=N)N)C(=O)O` (mixture of isomers) [Example 11, N-(6-Aminohexanoyl)-{(2S)-2Amino-3-cyclohexylpropanoyl}-Prolyl-Leucyl-{(R/S)-2-Amino-5-phenylpentanoyl}-Arginyl-OH], the Ki was found to be 3600 nM.

Consider `CC(C)C[C@H](NC(=O)CNC(=O)[C@H](CC1CCCCC1)NC(=O)[C@@H](N)CCCCN)C(=O)NC(CCCc1ccccc1)C(=O)N[C@@H](CCCNC(=N)N)C(=O)O` (single isomer, unassigned) [Example 42, H-Lysyl-{(2S)-2-Amino-3-cyclohexylpropanoyl}-Glycyl-Leucyl-{(R/S)-2-Amino-5-phenylpentanoyl}-Arginyl-OH], for which the inhibition constant (Ki) came out at 450 nM.

In the case of `CC(C)[C@H](NC(=O)CNC(=O)[C@H](CC1CCCCC1)NC(=O)CCCCCN)C(=O)NC(CCCc1ccccc1)C(=O)N[C@@H](CCCNC(=N)N)C(=O)O` (single isomer, unassigned) [Example 102, N-(6-Aminohexanoyl)-{(2S)-2-Amino-3-cyclohexylpropanoyl}-Glycyl-Valyl-{(FFS)-2-Amino-5-phenylpentanoyl}-Arginyl-OH], the Ki is 21700 nM.

Regarding `CC(C)C[C@H](NC(=O)CNC(=O)C(O)CC1CCCCC1)C(=O)N[C@H](CCCc1ccccc1)C(=O)N[C@@H](CCCNC(=N)N)C(=O)O` (stereo partly drawn) [Example 132, N-(3-Cyclohexyl-2-hydroxypropionyl)-Glycyl-Leucyl-{(R)-2-Amino-5-phenylpentanoyl}-Arginyl-OH] (X7-GL[d(hhPhe)]R-OH), the inhibition constant (Ki) turned out to be 420 nM.

For `CC(C)C[C@H](NC(=O)CNC(=O)[C@H](CC1CCCCC1)NC(=O)CN)C(=O)NC(CCCc1ccccc1)C(=O)N[C@@H](CCCNC(=N)N)C(=O)O` (single isomer, unassigned) [Example 73], the Ki is 1990 nM.
